Reference: article PMC12655529, “Serendipitous Hinge Modulation Hypothetically Reprograms Caerin 1.1-LC Antibacterial Mechanism and Gram-Negative Selectivity” (Pharmaceutics, 2025)
Ends that are not written are not given here.

What was measured:
[1] = tested on: K. pneumoniae ATCC BAA-2342; type: cell-based, Klebsiella pneumoniae
Description: (§1) The antimicrobial activities of the peptides were evaluated by determining their minimal inhibitory concentration (MIC) and minimal bactericidal concentration (MBC) values following reported protocols [20]. The tested microorganisms included seven Gram-negative bacterial strains (Escherichia coli ATCC 8739, E. coli ATCC-BAA 2340, E. coli NCTC 13846, Klebsiella pneumoniae ATCC 43816, K. pneumoniae ATCC BAA-2342, Pseudomonas aeruginosa ATCC 9027, Acinetobacter baumannii ATCC BAA-747), three Gram-positive bacterial strains (Staphylococcus aureus ATCC 6538, Enterococcus faecalis NCTC 12697, MRSA NCTC 12493, and the fungal strain Candida albicans ATCC 10231. For the assay, each bacterial strain was cultured overnight at 37 °C in 100 mL of medium in a flask. The cultures were then subcultured to reach the logarithmic growth phase and diluted to 5 × 10^5 CFU/mL. Peptide samples were serially diluted two-fold in microplates, with concentrations ranging from 128 μM to 1 μM. The diluted bacterial suspensions were mixed with the peptide solutions and incubated overnight at 37 °C. The MIC values were determined by measuring the absorbance of each well using a Synergy HT plate reader (Agilent, Cheshire, UK). For MBC determination, aliquots from wells showing no visible growth were inoculated onto agar plates to assess bacterial viability. Each experiment was repeated independently three times and conducted in three independent replicates.

E. coli (ATCC-BAA 2340) = type: cell-based, Escherichia coli; conditions: ATCC-BAA 2340
Description: The peptide sensitivity was determined in different salt- and serum-containing environments. Bacterial strains were prepared following the MIC detection protocol described previously. To evaluate peptide sensitivity under physiological conditions, various concentrations of salt ions (150 mM NaCl, 4.5 mM KCl, 2 mM CaCl2, 1 mM MgCl2, 8 µM ZnCl2, 6 µM NH4Cl, or 4 µM FeCl3) and serum (10% FBS) were prepared in McCartney bottles prior to the addition of bacterial suspensions. The subcultured bacterial suspensions were then introduced to these modified media conditions. For MIC determination, the treated bacterial suspensions were diluted and dispensed into 96-well plates containing peptide solutions at graded concentrations. This assay allowed for the detection of potential alterations in MIC values, serving as an indicator of peptide sensitivity under different physiological conditions. All experiments were independently repeated three times, each with three replicates.

[2] = tested on: Staphylococcus aureus ATCC 6538; type: cell-based; conditions: ATCC 6538
Description: as §1

[3] = tested on: Pseudomonas aeruginosa ATCC 9027; type: cell-based
Description: as §1

[4] = tested on: Klebsiella pneumoniae ATCC 43816; type: cell-based; conditions: ATCC 43816
Description: as §1

[5] = tested on: Enterococcus faecalis NCTC 12697; type: cell-based; conditions: NCTC 12697
Description: as §1

[6] = tested on: Escherichia coli ATCC 8739; type: cell-based; conditions: ATCC 8739
MRSA NCTC 12493 = type: cell-based, Staphylococcus aureus
Description: as §1

horse red blood cells = test: Haemolysis assay; type: cell-based; conditions: concentration inducing 10% haemolysis of horse erythrocytes; 4% (v/v) in PBS, 2 h, 37 °C, absorbance 570 nm; no haemolysis at maximum testing concentration (128 μM) recorded as 256 μM
Description: The peptide cytotoxicity against mammalian erythrocytes was evaluated by haemolysis assay on horse red blood cells (E&O Laboratories Ltd., Falkirk, UK). Fresh horse blood was washed three times with PBS and resuspended to a final concentration of 4% (v/v) in PBS. The diluted blood suspension was then mixed with peptide solutions at varying concentrations and incubated for 2 h at 37 °C. Red blood cell suspensions treated with 0.1% Triton X-100 and PBS were used as controls. The Triton X-100-treated suspension was the positive control (for 100% haemolysis), while the PBS-treated suspension was the blank control. Following incubation, the mixtures were centrifuged at 1000× g for 10 min to separate erythrocytes from the supernatant. The absorbance of the supernatants was detected at 570 nm. The percentage haemolysis was calculated by following the equationPercentage Haemolysis = (AbsSample − AbsBlank)/(AbsPositive − AbsBlank) × 100%

Gram-positive bacteria = test: Geometric mean MIC and therapeutic index, Gram-positive; type: cell-based; conditions: geometric mean of MICs
[7] = tested on: Acinetobacter baumannii ATCC BAA-747; type: cell-based; conditions: ATCC BAA-747
E. coli ATCC BAA-2340 = type: cell-based, Escherichia coli
Description: as §1

E. coli NCTC 13846 = type: cell-based, Escherichia coli
Gram-negative bacteria = test: Geometric mean MIC and therapeutic index, Gram-negative; type: cell-based; conditions: geometric mean of MICs

Substance	MBC, K. pneumoniae (ATCC BAA-2342) [1]	MIC, K. pneumoniae (ATCC BAA-2342) [1]	MBC, S. aureus (ATCC 6538) [2]	MIC, S. aureus (ATCC 6538) [2]	MBC, P. aeruginosa (ATCC 9027) [3]	MIC, P. aeruginosa (ATCC 9027) [3]	MBC, K. pneumoniae (ATCC 43816) [4]	MIC, K. pneumoniae (ATCC 43816) [4]	MBC, E. faecalis (NCTC 12697) [5]	MIC, E. faecalis (NCTC 12697) [5]	MBC, E. coli (ATCC 8739) [6]	MIC, E. coli (ATCC 8739) [6]	MBC, MRSA (NCTC 12493) (MRSA NCTC 12493)	MIC, MRSA (NCTC 12493) (MRSA NCTC 12493)	HC10 (horse red blood cells)	GM MIC Gram-Positive (Gram-positive bacteria)	MBC, A. baumannii (ATCC BAA-747) [7]	MIC, A. baumannii (ATCC BAA-747) [7]	MBC, E. coli (ATCC BAA-2340) (E. coli ATCC BAA-2340)	MIC, E. coli (ATCC BAA-2340) (E. coli ATCC BAA-2340)	further results
GLLSVLGSLKKIVPHVVPLIAKKL-NH2 [Caerin 1.1-LC 11K.22K]	4 µM	4 µM	16 µM	4 µM	8 µM	4 µM	16 µM	8 µM	64 µM	64 µM	2 µM	1 µM	8 µM	4 µM	10.3 µM	3.17 µM	16 µM	4 µM	2 µM	2 µM	MIC, Ca^2+ (E. coli (ATCC-BAA 2340)): 32 µM; MIC, Control (E. coli (ATCC-BAA 2340)): 4 µM; MIC, FBS (E. coli (ATCC-BAA 2340)): 16 µM; MIC, Fe^3+ (E. coli (ATCC-BAA 2340)): 8 µM; MIC, K^+ (E. coli (ATCC-BAA 2340)): 8 µM; MIC, Mg^2+ (E. coli (ATCC-BAA 2340)): 16 µM; MIC, NH4^+ (E. coli (ATCC-BAA 2340)): 8 µM; MIC, Na^+ (E. coli (ATCC-BAA 2340)): 8 µM; MBC, E. coli (NCTC 13846) (E. coli NCTC 13846): 8 µM; MIC, E. coli (NCTC 13846) (E. coli NCTC 13846): 4 µM
GLLSVLGSLKKWVPHVVPLIAKKL-NH2 [Caerin 1.1-LC 11K.12K.12W]	8 µM	8 µM	2 µM	1 µM	4 µM	2 µM	4 µM	2 µM	32 µM	32 µM	2 µM	2 µM	16 µM	1 µM	8.5 µM	2 µM	4 µM	4 µM	4 µM	2 µM	MIC, Ca^2+ (E. coli (ATCC-BAA 2340)): 32 µM; MIC, Control (E. coli (ATCC-BAA 2340)): 4 µM; MIC, FBS (E. coli (ATCC-BAA 2340)): 8 µM; MIC, Fe^3+ (E. coli (ATCC-BAA 2340)): 4 µM; MIC, K^+ (E. coli (ATCC-BAA 2340)): 4 µM; MIC, Mg^2+ (E. coli (ATCC-BAA 2340)): 8 µM; MIC, NH4^+ (E. coli (ATCC-BAA 2340)): 4 µM; MIC, Na^+ (E. coli (ATCC-BAA 2340)): 4 µM; MBC, E. coli (NCTC 13846) (E. coli NCTC 13846): 4 µM; MIC, E. coli (NCTC 13846) (E. coli NCTC 13846): 2 µM
GLLSVLGSLKLIVPGGGPLIAEKL-NH2 [Caerin 1.1-LC PGGGP]	>128 µM	>128 µM	>128 µM	>128 µM	>128 µM	>128 µM	>128 µM	>128 µM	>128 µM	>128 µM	128 µM	128 µM	>128 µM	>128 µM	256 µM	256 µM	>128 µM	>128 µM	> 128 µM	128 µM	GM MIC Gram-Negative (Gram-negative bacteria): 190.21 µM
GLLSVLGSLKLIVPHIIPLIAEKL-NH2 [Caerin 1.1-LC PHIIP]	16 µM	8 µM	8 µM	4 µM	64 µM	32 µM	16 µM	16 µM	>128 µM	>128 µM	8 µM	4 µM	4 µM	4 µM	2.4 µM	8 µM	8 µM	8 µM	8 µM	4 µM	MBC, E. coli (NCTC 13846) (E. coli NCTC 13846): 8 µM; MIC, E. coli (NCTC 13846) (E. coli NCTC 13846): 4 µM
GLLSVLGSLKLIVPKVVPLIAEKL-NH2 [Caerin 1.1-LC PKVVP]	32 µM	8 µM	32 µM	16 µM	32 µM	8 µM	32 µM	16 µM	>128 µM	>128 µM	8 µM	4 µM	8 µM	8 µM	25.8 µM	12.14 µM	32 µM	32 µM	4 µM	2 µM	MBC, E. coli (NCTC 13846) (E. coli NCTC 13846): 4 µM; MIC, E. coli (NCTC 13846) (E. coli NCTC 13846): 2 µM
GLLSVLGSLKLIVPRVVPLIAEKL-NH2 [Caerin 1.1-LC PRVVP]	32 µM	8 µM	16 µM	8 µM	8/8 µM	8/8 µM	16 µM	8 µM	>128 µM	>128 µM	8 µM	2 µM	8 µM	4 µM	25.8 µM	5.94 µM	32 µM	32 µM	4 µM	2 µM	MBC, E. coli (NCTC 13846) (E. coli NCTC 13846): 16 µM; MIC, E. coli (NCTC 13846) (E. coli NCTC 13846): 4 µM
GLLSVLKSLKKIVPHVVPKIAEKL-NH2 [Caerin 1.1-LC 7.11.19K]	4 µM	4 µM	4 µM	4 µM	4/4 µM	4/4 µM	4 µM	4 µM	128 µM	128 µM	2 µM	2 µM	8 µM	8 µM	46.5 µM	3.28 µM	8 µM	4 µM	2 µM	2 µM	MIC, Ca^2+ (E. coli (ATCC-BAA 2340)): 64 µM; MIC, Control (E. coli (ATCC-BAA 2340)): 2 µM; MIC, FBS (E. coli (ATCC-BAA 2340)): 16 µM; MIC, Fe^3+ (E. coli (ATCC-BAA 2340)): 2 µM; MIC, K^+ (E. coli (ATCC-BAA 2340)): 2 µM; MIC, Mg^2+ (E. coli (ATCC-BAA 2340)): 4 µM; MIC, NH4^+ (E. coli (ATCC-BAA 2340)): 2 µM; MIC, Na^+ (E. coli (ATCC-BAA 2340)): 2 µM; MBC, E. coli (NCTC 13846) (E. coli NCTC 13846): 4 µM; MIC, E. coli (NCTC 13846) (E. coli NCTC 13846): 4 µM
